Measurements reported in PubChem BioAssay (NCI).
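Tested at 5 concentrations; 48 h exposure; 96-well plates; endpoints linearly interpolated, else capped at highest concentration. TGI: total growth inhibition.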

How the values were obtained:
Assay in all cases: NCI tumour cell line growth inhibition, 48 h
SF-539 CNS = test system: SF-539 CNS
UACC-257 melanoma = test system: UACC-257 melanoma
RXF-631 renal = test system: RXF-631 renal
NCI-H460 lung = test system: NCI-H460 lung
ACHN renal = test system: ACHN renal
HL-60(TB) leukemia = test system: HL-60(TB) leukemia
HCC-2998 colon = test system: HCC-2998 colon
UO-31 renal = test system: UO-31 renal
MALME-3M melanoma = test system: MALME-3M melanoma
SNB-78 CNS = test system: SNB-78 CNS
OVCAR-3 ovarian = test system: OVCAR-3 ovarian
M19-MEL melanoma = test system: M19-MEL melanoma
HT29 colon = test system: HT29 colon
DMS 114 small cell lung = test system: DMS 114 small cell lung
CCRF-CEM leukemia = test system: CCRF-CEM leukemia
DMS 273 small cell lung = test system: DMS 273 small cell lung
RXF 393 renal = test system: RXF 393 renal
NCI-H522 lung = test system: NCI-H522 lung
HOP-92 NSCLC = test system: HOP-92 NSCLC
XF 498 CNS = test system: XF 498 CNS
K-562 leukemia = test system: K-562 leukemia
M14 melanoma = test system: M14 melanoma
HCT-15 colon = test system: HCT-15 colon
LOX IMVI melanoma = test system: LOX IMVI melanoma
RPMI-8226 leukemia = test system: RPMI-8226 leukemia
SR leukemia = test system: SR leukemia
SN12C renal = test system: SN12C renal
LXFL 529 NSCLC = test system: LXFL 529 NSCLC
OVCAR-4 ovarian = test system: OVCAR-4 ovarian
MOLT-4 leukemia = test system: MOLT-4 leukemia
SF-268 CNS = test system: SF-268 CNS
SF-295 CNS = test system: SF-295 CNS
HOP-18 NSCLC = test system: HOP-18 NSCLC
A498 renal = test system: A498 renal
SK-MEL-28 melanoma = test system: SK-MEL-28 melanoma
HOP-62 NSCLC = test system: HOP-62 NSCLC
NCI-H23 lung = test system: NCI-H23 lung
U251 CNS = test system: U251 CNS
786-0 renal = test system: 786-0 renal
SK-OV-3 ovarian = test system: SK-OV-3 ovarian
A549 NSCLC = test system: A549 NSCLC
KM12 colon = test system: KM12 colon
IGROV1 ovarian = test system: IGROV1 ovarian
EKVX NSCLC = test system: EKVX NSCLC
SW-620 colon = test system: SW-620 colon
NCI-H226 lung = test system: NCI-H226 lung
HCT-116 colon = test system: HCT-116 colon
SK-MEL-5 melanoma = test system: SK-MEL-5 melanoma
TK-10 renal = test system: TK-10 renal
OVCAR-8 ovarian = test system: OVCAR-8 ovarian
KM20L2 colon = test system: KM20L2 colon
DLD-1 colon = test system: DLD-1 colon
SNB-75 CNS = test system: SNB-75 CNS
SK-MEL-2 melanoma = test system: SK-MEL-2 melanoma
CAKI-1 renal = test system: CAKI-1 renal
SNB-19 CNS = test system: SNB-19 CNS
UACC-62 melanoma = test system: UACC-62 melanoma
OVCAR-5 ovarian = test system: OVCAR-5 ovarian
COLO 205 colon = test system: COLO 205 colon
NCI/ADR-RES ovarian = test system: NCI/ADR-RES ovarian
MCF7 breast = test system: MCF7 breast
P388 leukemia = test system: P388 leukemia

O=C1C=C(Br)C(=O)C(Br)=C1
TGI (SF-539 CNS): > 100 µM | TGI (UACC-257 melanoma): > 100 µM | TGI (RXF-631 renal): > 100 µM | TGI (NCI-H460 lung): > 100 µM | TGI (ACHN renal): > 100 µM | TGI (HL-60(TB) leukemia): 54.9 µM | TGI (HCC-2998 colon): > 100 µM | TGI (UO-31 renal): > 100 µM | TGI (MALME-3M melanoma): > 100 µM | TGI (SNB-78 CNS): > 100 µM | TGI (OVCAR-3 ovarian): > 100 µM | TGI (M19-MEL melanoma): > 89.6 µM | TGI (HT29 colon): > 100 µM | TGI (DMS 114 small cell lung): > 100 µM | TGI (CCRF-CEM leukemia): > 81.6 µM | TGI (DMS 273 small cell lung): > 100 µM | TGI (RXF 393 renal): > 100 µM | TGI (NCI-H522 lung): > 100 µM | TGI (HOP-92 NSCLC): > 100 µM | TGI (XF 498 CNS): > 100 µM | TGI (K-562 leukemia): > 100 µM | TGI (M14 melanoma): > 100 µM | TGI (HCT-15 colon): > 100 µM | TGI (LOX IMVI melanoma): > 31.6 µM | TGI (RPMI-8226 leukemia): > 82.2 µM | TGI (SR leukemia): > 80.6 µM | TGI (SN12C renal): > 100 µM | TGI (LXFL 529 NSCLC): > 100 µM | TGI (OVCAR-4 ovarian): > 100 µM | TGI (MOLT-4 leukemia): > 86.2 µM | TGI (SF-268 CNS): > 100 µM | TGI (SF-295 CNS): > 100 µM | TGI (HOP-18 NSCLC): > 100 µM | TGI (A498 renal): > 100 µM | TGI (SK-MEL-28 melanoma): > 100 µM | TGI (HOP-62 NSCLC): > 100 µM | TGI (NCI-H23 lung): > 100 µM | TGI (U251 CNS): > 100 µM | TGI (786-0 renal): > 100 µM | TGI (SK-OV-3 ovarian): > 100 µM | TGI (A549 NSCLC): > 100 µM | TGI (KM12 colon): > 100 µM | TGI (IGROV1 ovarian): > 100 µM | TGI (EKVX NSCLC): > 100 µM | TGI (SW-620 colon): > 100 µM | TGI (NCI-H226 lung): > 100 µM | TGI (HCT-116 colon): > 100 µM | TGI (SK-MEL-5 melanoma): > 100 µM | TGI (TK-10 renal): > 100 µM | TGI (OVCAR-8 ovarian): > 100 µM | TGI (KM20L2 colon): > 100 µM | TGI (DLD-1 colon): > 100 µM | TGI (SNB-75 CNS): > 100 µM | TGI (SK-MEL-2 melanoma): > 100 µM | TGI (CAKI-1 renal): > 100 µM | TGI (SNB-19 CNS): > 100 µM | TGI (UACC-62 melanoma): > 100 µM | TGI (OVCAR-5 ovarian): > 100 µM | TGI (COLO 205 colon): > 100 µM

C=C1CC(OC)(C(O)C(=O)N[C@H]2OCO[C@H]3C2O[C@H](C[C@@H](CO)OC)C(C)(C)C3OC)O[C@H](C)[C@@H]1C (stereo partly drawn)
TGI (UACC-257 melanoma): < 0.00932 µM | TGI (NCI-H460 lung): < 0.00932 µM | TGI (OVCAR-3 ovarian): < 0.00932 µM | TGI (M19-MEL melanoma): < 0.00932 µM | TGI (HT29 colon): < 0.00932 µM | TGI (CCRF-CEM leukemia): 0.0532 µM | TGI (RXF 393 renal): < 0.00932 µM | TGI (K-562 leukemia): > 93.2 µM | TGI (LOX IMVI melanoma): < 0.00932 µM | TGI (RPMI-8226 leukemia): < 0.00932 µM | TGI (SN12C renal): 0.0114 µM | TGI (OVCAR-4 ovarian): < 0.00932 µM | TGI (MOLT-4 leukemia): > 93.2 µM | TGI (SF-295 CNS): < 0.00932 µM | TGI (HOP-18 NSCLC): < 0.00932 µM | TGI (A498 renal): < 0.00932 µM | TGI (NCI/ADR-RES ovarian): 0.016 µM | TGI (U251 CNS): < 0.00932 µM | TGI (SK-OV-3 ovarian): < 0.00932 µM | TGI (A549 NSCLC): < 0.00932 µM | TGI (IGROV1 ovarian): < 0.00932 µM | TGI (SW-620 colon): < 0.00932 µM | TGI (NCI-H226 lung): < 0.00932 µM | TGI (HCT-116 colon): < 0.00932 µM | TGI (MCF7 breast): > 93.2 µM | TGI (SK-MEL-5 melanoma): < 0.00932 µM | TGI (KM20L2 colon): < 0.00932 µM | TGI (DLD-1 colon): < 0.00932 µM | TGI (SNB-75 CNS): < 0.00932 µM | TGI (CAKI-1 renal): < 0.00932 µM | TGI (SNB-19 CNS): < 0.00932 µM | TGI (P388 leukemia): > 93.2 µM | TGI (UACC-62 melanoma): < 0.00932 µM | TGI (COLO 205 colon): < 0.00932 µM
